Here are results for 18 compounds from ChEMBL document CHEMBL5137062, “Overview of Methionine Adenosyltransferase 2A (MAT2A) as an Anticancer Target: Structure, Function, and Inhibitors” (J Med Chem, 2022).

The target in test [1] is T1, S-adenosylmethionine synthase isoform type-2 (Homo sapiens, UniProt P31153). In words: Inhibition of human MAT2A assessed as S-adenosyl methionine production using L-methionine as substrate pretreated for 60 mins followed by L-methionine and ATP addition by colorimetric analysis.
T1 sequence (P31153 whole entry, canonical isoform): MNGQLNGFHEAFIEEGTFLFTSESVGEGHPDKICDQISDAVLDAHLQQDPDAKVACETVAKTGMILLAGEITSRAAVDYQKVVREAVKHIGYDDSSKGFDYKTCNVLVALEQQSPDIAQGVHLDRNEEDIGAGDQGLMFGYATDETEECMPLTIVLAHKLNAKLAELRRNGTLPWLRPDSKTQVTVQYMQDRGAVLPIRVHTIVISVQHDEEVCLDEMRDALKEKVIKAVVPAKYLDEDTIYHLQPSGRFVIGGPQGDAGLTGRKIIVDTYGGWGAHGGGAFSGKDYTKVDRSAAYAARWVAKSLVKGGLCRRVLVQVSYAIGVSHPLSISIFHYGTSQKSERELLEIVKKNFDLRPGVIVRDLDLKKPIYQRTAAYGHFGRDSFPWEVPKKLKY
A short description of test [2]: Inhibition of rat liver MAT isozymes assessed as S-adenosyl methionine production using L-methionine as substrate in presence of ATP. The class given is tissue-based.
A short description of test [3]: Inhibition of rat novikoff liver hepatoma MAT isozymes assessed as S-adenosyl methionine production using L-methionine as substrate in presence of ATP. The class given is tissue-based.
For test [4], the target named is T1, S-adenosylmethionine synthase isoform type-2. As to the kind of experiment: Inhibition of MAT2A in human NCI-H520 cells transfected with MAT2A empty vector assessed as inhibition of S-adenosyl methionine production measured after 6 hrs by Rapid Fire Mass Spectrometry analysis. The class given is cell-based.
For test [5] the target is unchanged. As to the kind of experiment: Inhibition of MAT2A in human Huh-7 cells assessed as inhibition of S-adenosyl methionine production measured after 6 hrs by Rapid Fire Mass Spectrometry analysis. The class given is cell-based.
Test [6] shares this target. As to the kind of experiment: Inhibition of MAT2A (unknown origin) assessed as S-adenosyl methionine production using L-methionine as substrate pretreated for 60 mins followed by L-methionine and ATP addition.
Test [7] in a line: Antiproliferative activity against human HCT116-MTAP null cells assessed as cell growth inhibition measured after 6 days by Cell Titer Glo analysis. The class given is functional, cell-based. To be noted: 144 h.
The test system of test [8] is HCT-116. As to the kind of experiment: Antiproliferative activity against human HCT-116 cells expressing MTAP assessed as cell growth inhibition measured after 6 days by Cell Titer Glo analysis. The class given is functional, cell-based. To be noted: HCT-116, 144 h. (In general: ATP-based viability assays read luminescence as a measure of living cells.)
Test [9] addresses T1, S-adenosylmethionine synthase isoform type-2. In words: Inhibition of human recombinant His-tagged MAT2A expressed in Escherichia coli expression system assessed as S-adenosyl methionine production using L-methionine as substrate incubated for 20 mins followed by L-methionine and ATP addition by malachite green phosphate assay.
Test [10] shares this target. In words: Inhibition of human MAT2A expressed in baculovirus infected Sf9 cells expression system assessed as S-adenosyl methionine production using L-methionine as substrate pretreated for 60 mins followed by L-methionine and ATP addition.
Test [11] deals with HCT-116. As to the kind of experiment: Antiproliferative activity against human HCT-116 cells expressing MTAP assessed as cell growth inhibition incubated for 24 hrs by Cell Titer Glo analysis. The settings on record: HCT-116, 24 h. The class given is functional, cell-based.
Test [12] addresses T1, S-adenosylmethionine synthase isoform type-2. In words: Inhibition of N-terminal TEV cleavable 6His-tagged human MAT2A (1 to 395 residues) expressed in Escherichia coli BL21 (DE3) cells assessed as S-adenosyl methionine production using L-methionine as substrate incubated for 30 mins followed by L-methionine and ATP addition by MS/MS analysis.
The target of test [13] is S-adenosylmethionine synthase isoform type-1 (Homo sapiens) (UniProt Q00266). In words: Inhibition of N-terminal TEV cleavable 6His-tagged human MAT1A (1 to 334 residues) expressed in Escherichia coli BL21 (DE3) cells assessed as S-adenosyl methionine production using L-methionine as substrate incubated for 30 mins followed by L-methionine and ATP addition by MS/MS analysis relative to control.
Sequence of S-adenosylmethionine synthase isoform type-1 (Homo sapiens) (Q00266 whole entry, the tested form may be a part, canonical isoform): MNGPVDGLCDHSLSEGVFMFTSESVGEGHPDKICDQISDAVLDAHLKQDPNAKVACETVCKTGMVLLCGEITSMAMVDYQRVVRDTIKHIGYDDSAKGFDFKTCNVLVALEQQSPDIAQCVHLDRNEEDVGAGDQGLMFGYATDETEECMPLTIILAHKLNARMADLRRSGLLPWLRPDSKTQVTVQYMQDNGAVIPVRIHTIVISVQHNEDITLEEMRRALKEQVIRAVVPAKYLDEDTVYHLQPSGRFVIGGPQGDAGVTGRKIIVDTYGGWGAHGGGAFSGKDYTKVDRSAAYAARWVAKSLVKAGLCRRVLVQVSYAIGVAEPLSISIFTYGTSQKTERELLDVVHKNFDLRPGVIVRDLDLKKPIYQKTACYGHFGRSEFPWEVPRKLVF

Test [14] in a line: Antiproliferative activity against human HCT116-MTAP null cells assessed as cell growth inhibition incubated for 92 hrs by In-cell western analysis. The class given is functional, cell-based.

Take `Cc1cc(C)c(-c2cnc(NC(=O)c3cccc(Cn4ccccc4=O)c3)n2C)cc1Br`: in test [1], the IC50 was less than 0.5 µM.

For the compound `NC1(C(=O)O)CCCC1` [CYCLOLEUCINE], the IC50 in test [2] turned out to be 209 µM; in test [3], 209 µM; in test [4] it was 5600 µM; in test [5], 1300 µM.

Consider `Cn1cnc2ccc(-c3cc4cnc(NCC(F)(F)F)nc4n(-c4ccc(OC(F)F)cc4)c3=O)cc21`, for which the IC50 in test [6] was 0.0365 µM; in [7], 0.102 µM; in the test with HCT-116 [8] it was greater than 10 µM. Take `CN(C)c1ccc(/C=C/c2c(F)cccc2F)cc1`: in test [9], the IC50 was 4.9 µM. As for `COc1ccc(-c2c(=O)n(-c3ccc4ncsc4c3)nc3ccc(OCC(F)F)nc23)cc1`, the half-inhibitory concentration (IC50) is less than 0.1 µM in test [10] and greater than 1 µM in the test with HCT-116 [11].

`CCNc1ccc2nn(-c3ccc4nc(C)n(C)c4c3)c(=O)c(-c3ccc(C(F)F)cc3)c2n1`: the IC50 in test [10] was less than 0.1 µM; with HCT-116 [11], greater than 1 µM. For `Cc1cc(C)c(-c2cnc(NC(=O)c3cccc(Cn4cccn4)c3)n2C)cc1C`, the IC50 in [1] was less than 0.5 µM.

For the compound `[2H]C([2H])([2H])Oc1ccc(N2C(=O)N(c3ccc4nn(C)cc4c3)Cc3cnc(OCC(F)F)nc32)cc1`, the IC50 was less than 0.1 µM in test [10] and greater than 1 µM with HCT-116 [11]. On to `CN(C)CCc1nnc2cc(-c3ccccc3)c3cc(Cl)ccc3n12`, for which the IC50 in test [12] amounted to 0.42 µM; in test [4], 1.2 µM; in test [5] it was 0.225 µM. The inhibition in [13] was 50%. Take `Cc1cc(-c2cnc(NC(=O)c3cccc(CN4CCCC4=O)c3)n2C)ccc1O`: the IC50 in test [1] was less than 0.5 µM. In the case of `Cc1cc(=O)n2nc(C)c(-c3ccccc3)c2[nH]1`, the figures for the IC50 in test [10] and in test [14] were 0.008 µM and 0.009 µM, respectively. Consider `CNc1ccc(/C=C/c2c(F)cccc2Cl)cc1`, for which the IC50 in [9] worked out at 2.1 µM. For the compound `COc1ccc(N2C(=O)N(c3ccc4nn(C)cc4c3)Cc3cnc(NCC(F)(F)F)nc32)cc1`, the 50% inhibitory concentration (IC50) was less than 0.1 µM in test [10] and greater than 1 µM with HCT-116 [11]. Take `CCOc1ncc2cc(C3=CC4N=C(CCN5CCC(O)C5)N(C)C4C=C3)c(=O)n(-c3ccc(OC(F)F)cc3)c2n1` (stereo not given): the IC50 in test [6] came out at 0.0047 µM. With `CCNc1ccc2nn(-c3ccc4nn(C)cc4c3)c(=O)c(-c3ccc(Cl)cc3)c2n1`, the IC50 in [10] was less than 0.1 µM; in the test on HCT-116 [11] it was greater than 1 µM.

Regarding `COc1ccc(N2Cc3ccc(NCC(F)(F)F)nc3N(c3ccc(-c4ncn[nH]4)cc3)C2=O)cc1`, the IC50 in test [10] was less than 0.1 µM; in the test with HCT-116 [11], greater than 1 µM. For the compound `CCOc1ncc2cc(-c3ccc4ncn(C)c4c3)c(=O)n(-c3ccc(OC(F)F)cc3)c2n1`, the IC50 in [6] was found to be 0.0195 µM; in test [7], 0.0844 µM; in the test with HCT-116 [8] it was 3.8 µM.

In the case of `CCOc1ncc2cc(-c3ccc(OC)cc3C)c(=O)n(-c3ccc(OC(F)F)cc3)c2n1`, the IC50 in test [6] came to 0.0701 µM.

A word on the IC50: it is the midpoint of a concentration-inhibition curve. By inhibition is commonly meant the drop in the measured response relative to a control, in per cent.
